Calls of active or inactive are those of the source. The calls are words filed in the database; no cut-off is given here.
Key:
[1] = molecular target: T1, Type-1 angiotensin II receptor (Homo sapiens) (UniProt P30556); experiment: Binding affinity to AT1 receptor (unknown origin) at 10 uM by antagonist displacement assay relative to control
T1 sequence (whole entry): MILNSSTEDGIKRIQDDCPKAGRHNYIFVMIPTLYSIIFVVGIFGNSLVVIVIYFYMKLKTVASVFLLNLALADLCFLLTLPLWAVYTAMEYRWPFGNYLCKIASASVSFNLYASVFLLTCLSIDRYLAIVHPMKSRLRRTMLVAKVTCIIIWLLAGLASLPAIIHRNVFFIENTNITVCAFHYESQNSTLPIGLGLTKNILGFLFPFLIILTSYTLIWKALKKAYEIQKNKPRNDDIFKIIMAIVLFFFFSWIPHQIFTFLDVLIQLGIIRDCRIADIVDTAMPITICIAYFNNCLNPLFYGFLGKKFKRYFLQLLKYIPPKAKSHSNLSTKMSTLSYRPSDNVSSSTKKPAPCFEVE

[2] = Half life in rat at 3 mg/kg, iv; assay type: ADME, organism-based; parameters: dose 3 mg/kg, route intravenous; conditions: in vivo
[3] = Oral bioavailability in rat at 3 mg/kg; assay type: ADME, organism-based; conditions: in vivo
Mus musculus [4] = experiment: Antidiabetic activity in diet-induced obese ICR mouse model assessed as decrease in fasting blood glucose level at 3 to 10 mg/kg, po measured at 4 hrs by glucometer; assay type: functional, organism-based
[5] = Half life in monkey at 3 mg/kg, iv; assay type: ADME, organism-based, Macaca mulatta; parameters: dose 3 mg/kg, route intravenous; conditions: rhesus monkey, in vivo
[6] = Volume of distribution at steady state in mouse at 3 mg/kg, iv; assay type: ADME, organism-based; parameters: dose 3 mg/kg, route intravenous; conditions: in vivo, read-out: Vdss
[7] = Oral bioavailability in mouse at 3 mg/kg; assay type: ADME, organism-based; conditions: in vivo
[8] = molecular target: Glucagon-like peptide 1 receptor (Homo sapiens, UniProt P43220); experiment: Antagonist activity at human GLP-1R expressed in CHO cells assessed as inhibition of GLP-1-stimulated cAMP production preincubated for 30 mins followed by GLP-1 induction measured after 45 mins by LANCE assay; assay type: functional, cell-based
Sequence of Glucagon-like peptide 1 receptor (P43220 whole entry): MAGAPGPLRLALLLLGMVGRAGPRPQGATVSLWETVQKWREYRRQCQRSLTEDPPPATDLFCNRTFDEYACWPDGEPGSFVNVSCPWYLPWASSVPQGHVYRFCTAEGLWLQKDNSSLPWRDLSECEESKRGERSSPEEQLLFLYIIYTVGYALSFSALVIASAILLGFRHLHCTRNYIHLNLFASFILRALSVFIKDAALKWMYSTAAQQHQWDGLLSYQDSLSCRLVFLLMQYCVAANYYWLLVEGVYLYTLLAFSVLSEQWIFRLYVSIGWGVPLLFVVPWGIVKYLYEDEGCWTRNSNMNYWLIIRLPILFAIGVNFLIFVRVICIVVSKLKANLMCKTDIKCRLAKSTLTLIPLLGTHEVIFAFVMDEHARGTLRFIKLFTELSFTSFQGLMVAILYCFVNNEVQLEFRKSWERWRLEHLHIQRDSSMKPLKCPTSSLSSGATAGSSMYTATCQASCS

[9] = Oral bioavailability in dog at 5 mg/kg; assay type: ADME, organism-based, Canis lupus familiaris; conditions: in vivo
[10] = Half life in dog at 1 mg/kg, iv; assay type: ADME, organism-based, Canis lupus familiaris; parameters: dose 1 mg/kg, route intravenous; conditions: in vivo
Glucagon receptor [11] = molecular target: T2, Glucagon receptor (Homo sapiens, UniProt P47871); experiment: Antagonist activity at human GCGR expressed in CHO cells assessed as inhibition of glucagon-stimulated cAMP production preincubated for 30 mins followed by glucagon induction measured after 45 mins by LANCE assay; assay type: functional, cell-based
T2 sequence (P47871 whole entry): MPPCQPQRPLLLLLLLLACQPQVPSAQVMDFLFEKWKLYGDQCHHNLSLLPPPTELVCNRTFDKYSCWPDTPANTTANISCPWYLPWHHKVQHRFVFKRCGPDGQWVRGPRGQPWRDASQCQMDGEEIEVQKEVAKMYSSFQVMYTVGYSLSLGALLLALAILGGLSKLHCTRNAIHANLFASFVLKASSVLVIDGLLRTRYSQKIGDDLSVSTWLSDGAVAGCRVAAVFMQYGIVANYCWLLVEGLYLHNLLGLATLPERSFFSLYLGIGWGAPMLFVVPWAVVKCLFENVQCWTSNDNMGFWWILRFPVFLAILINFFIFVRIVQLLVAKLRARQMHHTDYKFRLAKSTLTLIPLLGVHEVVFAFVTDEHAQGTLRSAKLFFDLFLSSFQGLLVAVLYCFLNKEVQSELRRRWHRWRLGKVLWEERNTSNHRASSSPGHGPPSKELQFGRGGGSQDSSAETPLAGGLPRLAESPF

[12] = molecular target: Kappa-type opioid receptor (Homo sapiens) (UniProt P41145); experiment: Binding affinity to kappa opioid receptor (unknown origin) at 10 uM by agonist displacement assay relative to control
Sequence of Kappa-type opioid receptor (Homo sapiens) (P41145 whole entry): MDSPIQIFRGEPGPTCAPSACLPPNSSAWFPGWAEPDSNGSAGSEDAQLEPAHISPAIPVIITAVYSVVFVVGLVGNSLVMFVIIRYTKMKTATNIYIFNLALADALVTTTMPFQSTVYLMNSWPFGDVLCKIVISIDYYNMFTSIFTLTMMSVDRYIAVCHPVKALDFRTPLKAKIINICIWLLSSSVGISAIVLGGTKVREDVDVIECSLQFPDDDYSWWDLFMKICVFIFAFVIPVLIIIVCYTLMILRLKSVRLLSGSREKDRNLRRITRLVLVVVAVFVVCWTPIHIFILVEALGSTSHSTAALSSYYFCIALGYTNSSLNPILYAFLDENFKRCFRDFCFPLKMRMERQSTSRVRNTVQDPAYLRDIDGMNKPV

[13] = Plasma concentration in diet-induced obese ICR mouse model at 3 mg/kg, po measured at 24 hrs by HPLC/MS/MS analysis; assay type: ADME, organism-based; parameters: dose 3 mg/kg, route oral
[14] = Plasma clearance in monkey at 3 mg/kg, iv; assay type: ADME, organism-based, Macaca mulatta; parameters: dose 3 mg/kg, route intravenous; conditions: rhesus monkey
Mus musculus [15] = experiment: Toxicity in streptozotocin-induced ICR mouse type-2 diabetic model assessed as effect on body weight at 3 to 30 mg/kg, po after 24 hrs; assay type: organism-based; parameters: dose 3-30 mg/kg, route oral; conditions: in vivo
[16] = Plasma concentration in streptozotocin-induced ICR mouse type-2 diabetic model at 3 mg/kg, po measured at 8 hrs by HPLC/MS/MS analysis; assay type: ADME, organism-based; parameters: dose 3 mg/kg, route oral
[17] = Plasma concentration in streptozotocin-induced ICR mouse type-2 diabetic model at 30 mg/kg, po measured at 8 hrs by HPLC/MS/MS analysis; assay type: ADME, organism-based; parameters: dose 30 mg/kg, route oral
[18] = molecular target: T3, Adenosine receptor A3 (Homo sapiens) (UniProt P0DMS8); conditions: 10 uM
T3 sequence (whole entry): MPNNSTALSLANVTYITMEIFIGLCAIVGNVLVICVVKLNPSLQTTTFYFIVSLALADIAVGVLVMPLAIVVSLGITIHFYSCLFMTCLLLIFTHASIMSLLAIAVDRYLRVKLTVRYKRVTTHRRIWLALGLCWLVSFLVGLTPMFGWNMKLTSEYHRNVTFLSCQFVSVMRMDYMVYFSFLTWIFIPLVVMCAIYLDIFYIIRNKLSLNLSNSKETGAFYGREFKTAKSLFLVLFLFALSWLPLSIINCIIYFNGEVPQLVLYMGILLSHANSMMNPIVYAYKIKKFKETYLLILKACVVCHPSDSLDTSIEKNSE
Description: Binding affinity to adenosine A3 receptor (unknown origin) at 10 uM by agonist displacement assay relative to control

Canis familiaris = experiment: Dose-normalized AUC in dog at 5 mg/kg, po; assay type: ADME, organism-based, Canis lupus familiaris; parameters: dose 5 mg/kg, route oral; conditions: in vivo
[19] = Volume of distribution at steady state in monkey at 3 mg/kg, iv; assay type: ADME, organism-based, Macaca mulatta; parameters: dose 3 mg/kg, route intravenous; conditions: rhesus monkey, in vivo, read-out: Vdss
Glucagon receptor [20] = molecular target: Glucagon receptor (Mus musculus, UniProt Q61606); assay type: cell membranes, Liver, Membrane
Sequence of Glucagon receptor (Mus musculus, UniProt Q61606) (Q61606 whole entry): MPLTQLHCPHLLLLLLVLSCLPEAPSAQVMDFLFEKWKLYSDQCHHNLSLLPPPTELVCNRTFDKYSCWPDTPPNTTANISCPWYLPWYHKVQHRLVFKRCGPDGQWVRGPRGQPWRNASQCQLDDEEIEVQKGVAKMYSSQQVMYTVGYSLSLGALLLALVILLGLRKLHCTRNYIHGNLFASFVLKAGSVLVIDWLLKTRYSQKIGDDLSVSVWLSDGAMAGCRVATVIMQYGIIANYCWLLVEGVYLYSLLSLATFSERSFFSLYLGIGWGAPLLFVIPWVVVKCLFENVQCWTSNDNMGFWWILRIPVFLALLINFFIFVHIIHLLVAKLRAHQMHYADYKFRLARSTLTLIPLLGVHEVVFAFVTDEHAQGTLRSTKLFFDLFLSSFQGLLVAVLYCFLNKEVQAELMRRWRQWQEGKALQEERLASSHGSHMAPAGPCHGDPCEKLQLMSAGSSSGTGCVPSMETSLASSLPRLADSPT
Description: Displacement of [125I]-glucagon from GCGR in mouse liver membranes after 60 mins by scintillation counting analysis

[21] = Plasma clearance in mouse at 3 mg/kg, iv; assay type: ADME, organism-based; parameters: dose 3 mg/kg, route intravenous
Mus musculus [22] = experiment: Antidiabetic activity in streptozotocin-induced ICR mouse type-2 diabetic model assessed as decrease in fasting blood glucose level at 30 mg/kg, po measured at 8 hrs by glucometer relative to vehicle-treated control; assay type: functional, organism-based; parameters: dose 30 mg/kg
[23] = Half life in mouse at 3 mg/kg, iv; assay type: ADME, organism-based; parameters: dose 3 mg/kg, route intravenous; conditions: in vivo
Mus musculus [24] = experiment: Antidiabetic activity in diet-induced obese ICR mouse model assessed as decrease in nonfasting blood glucose level at 3 to 10 mg/kg, po measured at 24 hrs by glucometer; assay type: functional, organism-based
Rhesus monkey = experiment: Dose-normalized AUC in monkey at 3 mg/kg, po; assay type: ADME, organism-based, Macaca mulatta; parameters: dose 3 mg/kg, route oral; conditions: in vivo
Rattus norvegicus = experiment: Dose-normalized AUC in rat at 3 mg/kg, po; assay type: ADME, organism-based; parameters: dose 3 mg/kg, route oral; conditions: in vivo
[25] = Plasma clearance in dog at 1 mg/kg, iv; assay type: ADME, organism-based, Canis lupus familiaris; parameters: dose 1 mg/kg, route intravenous
[26] = Plasma clearance in rat at 3 mg/kg, iv; assay type: ADME, organism-based; parameters: dose 3 mg/kg, route intravenous
Glucagon receptor [27] = molecular target: T2, Glucagon receptor; experiment: biochemical; assay type: cell-based, CHO
Description: Displacement of [125I]-glucagon from recombinant human GCGR expressed in CHO cells after 60 mins by scintillation counting analysis

[28] = Plasma concentration in diet-induced obese ICR mouse model at 10 mg/kg, po measured at 24 hrs by HPLC/MS/MS analysis; assay type: ADME, organism-based; parameters: dose 10 mg/kg, route oral
[29] = Oral bioavailability in monkey at 3 mg/kg; assay type: ADME, organism-based, Macaca mulatta; conditions: rhesus monkey, in vivo
[30] = Volume of distribution at steady state in rat at 3 mg/kg, iv; assay type: ADME, organism-based; parameters: dose 3 mg/kg, route intravenous; conditions: in vivo, read-out: Vdss
Mus musculus [31] = experiment: Antidiabetic activity in diet-induced obese ICR mouse model assessed as inhibition of glucagon-induced glucose excursion at 10 to 30 mg/kg, po bid measured for 60 mins by glucometer; assay type: functional, organism-based
Adenosine receptor A3 = molecular target: T4, Adenosine receptor A3 (Homo sapiens, UniProt P0DMS8); experiment: Binding affinity to adenosine A3 receptor (unknown origin) by agonist displacement assay
T4 sequence (P0DMS8 whole entry): T3 sequence (whole entry)

Mus musculus [32] = experiment: Dose-normalized AUC in mouse at 3 mg/kg, po; assay type: ADME, organism-based; parameters: dose 3 mg/kg, route oral; conditions: in vivo

CC(C)(C)CC[C@H](c1ccc(C(=O)NCc2nn[nH]n2)cc1)N1C(=O)C(c2cc(Cl)cc(Cl)c2)=N[C@]12CC[C@@H](C(C)(C)C)CC2
inhibition [1]: 93%
half-life [2]: 498 min
bioavailability [3]: 15%
Activity (Mus musculus [4]): Active
half-life [5]: 474 min
Vd [6]: 1.3 L/kg
bioavailability [7]: 31%
IC50 [8]: > 10 µM
bioavailability [9]: 32%
half-life [10]: 366 min
IC50 (Glucagon receptor [11]): 46 nM
inhibition [12]: 75%
concentration at 24 h [13]: 430 nM
clearance [14]: 0.6 mL/min/kg
Activity (Mus musculus [15]): Non-toxic
concentration at 8 h [16]: 1100 nM
concentration at 8 h [17]: 8.5 µM
inhibition [18]: 96%
AUC/dose (Canis familiaris): 30 µM·h/mg/kg
Vd [19]: 0.4 L/kg
IC50 (Glucagon receptor [20]): 130 nM
clearance [21]: 1.4 mL/min/kg
Activity (Mus musculus [22]): Active
half-life [23]: 660 min
Activity (Mus musculus [24]): Active
AUC/dose (Rhesus monkey): 22 µM·h/mg/kg
AUC/dose (Rattus norvegicus): 2.2 µM·h/mg/kg
clearance [25]: 0.3 mL/min/kg
clearance [26]: 1.8 mL/min/kg
IC50 (Glucagon receptor [27]): 24 nM
concentration at 24 h [28]: 810 nM
bioavailability [29]: 49%
Vd [30]: 1.3 L/kg
inhibition (Mus musculus [31]): Active
Ki (Adenosine receptor A3): 2430 nM
AUC/dose (Mus musculus [32]): 6 µM·h/mg/kg

— ChEMBL document CHEMBL3232855, “The discovery of N-((2H-tetrazol-5-yl)methyl)-4-((R)-1-((5r,8R)-8-(tert-butyl)-3-(3,5-dichlorophenyl)-2-oxo-1,4-diazaspiro[4.5]dec-3-en-1-yl)-4,4-dimethylpentyl)benzamide (SCH 900822): a potent and selective glucagon receptor antagonist” (J Med Chem, 2014)
